Reference: US12122779B2, “Pyrrolo-pyridazine derivatives as muscarinic M1 receptor positive allosteric modulators” (SUVEN LIFE SCIENCES LIMITED, priority 2018, dated 2024)

Assays:
[1] = target: T1, recombinant human Muscarinic M1 receptor (Homo sapiens, UniProt P11229); experiment: Allosteric potency EC50 for muscarinic M1 receptor, CHO pCRE-Luc reporter cell-based assay with EC20 of acetylcholine; settings: CHO cells, luciferase activity, in presence of EC20 of acetylcholine, 4 hours
T1 sequence (P11229 1-460): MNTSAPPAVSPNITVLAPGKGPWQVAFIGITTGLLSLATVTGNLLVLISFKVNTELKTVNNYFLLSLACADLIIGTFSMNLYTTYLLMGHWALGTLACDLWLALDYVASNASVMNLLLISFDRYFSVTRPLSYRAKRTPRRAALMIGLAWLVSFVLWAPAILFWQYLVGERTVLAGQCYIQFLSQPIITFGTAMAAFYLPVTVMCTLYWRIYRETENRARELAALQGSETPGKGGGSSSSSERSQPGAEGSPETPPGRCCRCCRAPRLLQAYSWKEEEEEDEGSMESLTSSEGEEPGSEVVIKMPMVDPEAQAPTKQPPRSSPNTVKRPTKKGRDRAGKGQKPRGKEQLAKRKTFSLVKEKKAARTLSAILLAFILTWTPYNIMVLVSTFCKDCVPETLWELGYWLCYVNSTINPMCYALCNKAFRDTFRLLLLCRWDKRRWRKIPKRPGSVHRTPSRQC
Protocol: Determination of Allosteric Potency EC50 Values for Muscarinic M1 Receptor
A stable CHO cell line expressing recombinant human Muscarinic M1 receptor and pCRE-Luc reporter system was used for cell-based assay. The assay offers a non-radioactive based approach to determine binding of a compound to GPCRs. In this specific assay, the level of intracellular cyclic AMP which is modulated by activation or inhibition of the receptor is measured. The recombinant cells harbor luciferase reporter gene under the control of cyclic AMP response element.
The above cells were grown in 96 well clear bottom white plates in Hams F12 medium containing 10% fetal bovine serum (FBS). Prior to the addition of compounds or standard agonist, cells were serum starved overnight. Increasing concentrations of test compounds were added along with EC20 of acetylcholine in OptiMEM medium to the cells. The incubation was continued at 37° C. in CO2 incubator for 4 hours. Medium was removed and cells were washed with phosphate buffered saline. The cells were lysed and luciferase activity was measured in a Luminometer. Luminescence units were plotted against the compound concentrations using Graphpad software.

[2] = Rodent pharmacokinetic study; assay type: in vivo, Male Wistar rats; settings: male, Wistar, plasma, rat; for bioavailability: oral 3 mg/kg vs intravenous 1 mg/kg, read-out: F (%) Bioavailability
Protocol: Rodent Pharmacokinetic Study
Male Wistar rats (260±50 grams) were used as experimental animals. Animals were housed individually in polypropylene cage. Two days prior to study, male Wistar rats were anesthetized with isoflurane for surgical placement of jugular vein catheter. Rats were randomly divided for oral (3 mg/kg) and intravenous (1 mg/kg) dosing (n=3/group) and fasted overnight before oral dosing (p.o.). However, rats allocated to intravenous dosing food and water was provided ad libitum.
At pre-determined point, blood was collected through jugular vein and replenished with an equivalent volume of normal saline. Collected blood was transferred into a labeled eppendorf tube containing 10 μL of heparin as an anticoagulant. Typically blood samples were collected at following time points: 0.08, 0.25, 0.5, 1, 2, 4, 6, 8, and 24 h post dose. Blood was centrifuged at 4000 rpm for 10 minutes. Plasma was separated and stored frozen at −80° C. until analysis. The concentrations of the test compounds were quantified in plasma by qualified LC-MS/MS method using suitable extraction technique. The test compounds were quantified in the calibration range around 1-1000 ng/mL in plasma. Study samples were analyzed using calibration samples in the batch and quality control samples spread across the batch.
Pharmacokinetic parameters Cmax, AUCt, T1/2, Clearance and Bioavailability (F) were calculated by non-compartmental model using standard non-compartmental model by using Phoenix WinNonlin 6.0.4 version Software package.

[3] = Rodent brain penetration study; assay type: in vivo, Male Wistar rats; settings: male, Wistar, brain and plasma, po; rat, 3 mg/kg p.o., brain-plasma ratio; read-out: Single dose Rat Brain Penetration (Cb/Cp) at 3 mg/kg, p.o.
Protocol: Rodent Brain Penetration Study
Male Wistar rats (260±40 grams) were used as experimental animals. Three animals were housed in each cage. Animals were given water and food ad libitum throughout the experiment and maintained on a 12 h light/dark cycle.
Brain penetration was determined in discrete manner in rats. One day prior to dosing day, male Wistar rats were acclimatized and randomly grouped according to their weight. At each time point (0.50, 1 and 2 h) n=3 animals were used.
The test compounds were suitably preformulated and administered orally at (free base equivalent) 3 mg/kg. Blood samples were removed via cardiac puncture by using isoflurane anesthesia. The animals were sacrificed to collect brain tissue. Plasma was separated and brain samples were homogenized and stored frozen at −20° C. until analysis. The concentrations of the test compounds in plasma and brain were determined using LC-MS/MS method.
The test compounds were quantified in plasma and brain homogenate by qualified LC-MS/MS method using suitable extraction technique. The test compounds were quantified in the calibration range of 1-500 ng/mL in plasma and brain homogenate. Study samples were analyzed using calibration samples in the batch and quality control samples spread across the batch. Extent of brain-plasma ratio (Cb/Cp) was calculated.

O=C(N[C@H]1CCCC[C@@H]1O)c1cc(Cc2ccc(-c3ccc(F)cc3)cc2)c2cccn2n1 (stereo in doubt) [Example 23, N-[(1S,2S)-2-Hydroxycyclohexyl] 4-[4-(4-fluorophenyl)-benzyl]-pyrrolo[1,2-b]pyridazine-2-carboxamide]
EC50 [1]: 1.02 µM

O=C(N[C@H]1CCCC[C@@H]1O)c1cc(Cc2ccc(-c3cccnc3)cc2)c2cccn2n1 (stereo in doubt) [Example 26, N-[(1S,2S)-2-Hydroxycyclohexyl] 4-[4-(3-pyridyl)-benzyl]-pyrrolo[1,2-b]pyridazine-2-carboxamide]
AUC(0-t) ([2]; intravenous (bolus), 1 mg/kg): 1130 ± 61 ng·h/mL
clearance ([2]; intravenous (bolus), 1 mg/kg): 14.4 ± 1 mL/min/kg
half-life ([2]; intravenous (bolus), 1 mg/kg): 1.8 ± 0.2 h
bioavailability [2]: 71 ± 4%
AUC(0-t) ([2]; oral (gavage), 3 mg/kg): 2390 ± 129 ng·h/mL
Cmax ([2]; oral (gavage), 3 mg/kg): 762 ± 80 ng/mL
half-life ([2]; oral (gavage), 3 mg/kg): 1.77 ± 0.07 h

O=C(N[C@H]1CCCC[C@@H]1O)c1cc(Cc2ccc(-c3ccncc3)cc2)c2cccn2n1 (stereo in doubt) [Example 27, N-[(1S,2S)-2-Hydroxycyclohexyl] 4-[4-(4-pyridyl)-benzyl]-pyrrolo[1,2-b]pyridazine-2-carboxamide]
AUC(0-t) ([2]; intravenous (bolus), 1 mg/kg): 687 ± 50 ng·h/mL
clearance ([2]; intravenous (bolus), 1 mg/kg): 24 ± 1.8 mL/min/kg
half-life ([2]; intravenous (bolus), 1 mg/kg): 1.1 ± 0.3 h
bioavailability [2]: 49 ± 16%
AUC(0-t) ([2]; oral (gavage), 3 mg/kg): 1000 ± 320 ng·h/mL
Cmax ([2]; oral (gavage), 3 mg/kg): 397 ± 162 ng/mL
half-life ([2]; oral (gavage), 3 mg/kg): 1.06 ± 0.08 h

Cc1cncc(-c2ccc(Cc3cc(C(=O)N[C@H]4CCCC[C@@H]4O)nn4cccc34)cc2)c1 (stereo in doubt) [Example 44, N-[(1S,2S)-2-Hydroxycyclohexyl]-4-[4-(5-methylpyridin-3-yl)-benzyl]-pyrrolo[1,2-b]pyridazine-2-carboxamide]
EC50 [1]: 0.096 µM
Kp [3]: 0.17 ± 0.01
AUC(0-t) ([2]; intravenous (bolus), 1 mg/kg): 2290 ± 121 ng·h/mL
clearance ([2]; intravenous (bolus), 1 mg/kg): 7.1 ± 0.4 mL/min/kg
half-life ([2]; intravenous (bolus), 1 mg/kg): 1.7 ± 0.1 h
bioavailability [2]: 64 ± 9%
AUC(0-t) ([2]; oral (gavage), 3 mg/kg): 4430 ± 618 ng·h/mL
Cmax ([2]; oral (gavage), 3 mg/kg): 1440 ± 241 ng/mL
half-life ([2]; oral (gavage), 3 mg/kg): 1.79 ± 0.37 h

O=C(N[C@H]1CCCC[C@@H]1O)c1cc(Cc2ccc(Cl)cc2)c2cccn2n1 [Example 2, N-[(1S,2S)-2-Hydroxycyclohexyl]-4-(4-chlorobenzyl)-pyrrolo[1,2-b]pyridazine-2-carboxamide]
EC50 [1]: 0.555 µM

CC(C)(O)CNC(=O)c1cc(Cc2ccc(Cl)cc2)c2cccn2n1 [Example 3, N-[2-Hydroxy-2-methyl-propyl]-4-(4-chlorobenzyl)-pyrrolo[1,2-b]pyridazine-2-carboxamide]
EC50 [1]: 0.941 µM

O=C(N[C@H]1CCCC[C@@H]1O)c1cc(Cc2ccc(Br)cc2)c2cccn2n1 [Example 5, N-[(1S,2S)-2-Hydroxycyclohexyl]-4-(4-bromobenzyl)-pyrrolo[1,2-b]pyridazine-2-carboxamide]
EC50 [1]: 0.344 µM

O=C(NCC1(O)CCOCC1)c1cc(Cc2ccc(Cl)cc2)c2cccn2n1 [Example 6, N-[(4-Hydroxy-tetrahydro-pyran-4-ylmethyl)]-4-(4-chlorobenzyl)-pyrrolo[1,2-b]pyridazine-2-carboxamide]
EC50 [1]: 3.99 µM

O=C(N[C@H]1CCCC[C@@H]1O)c1cc(Cc2cccc(F)c2)c2cccn2n1 [Example 7, N-[(1S,2S)-2-Hydroxycyclohexyl]-4-(3-fluorobenzyl)-pyrrolo[1,2-b]pyridazine-2-carboxamide]
EC50 [1]: 0.847 µM

O=C(NCCO)c1cc(Cc2ccc(Br)cc2)c2cccn2n1 [Example 12, N-[2-hydroxyethyl]-4-(4-bromobenzyl)-pyrrolo[1,2-b]pyridazine-2-carboxamide]
EC50 [1]: 1.55 µM

CCC(CO)NC(=O)c1cc(Cc2ccc(Br)cc2)c2cccn2n1 (stereo not drawn) [Example 16, N-[1-Hydroxymethyl-propyl]-4-(4-bromobenzyl)-pyrrolo[1,2-b]pyridazine-2-carboxamide]
EC50 [1]: 1 µM

CC(C)C(CO)NC(=O)c1cc(Cc2ccc(Br)cc2)c2cccn2n1 (stereo not drawn) [Example 17, N-[1-Hydroxymethyl-2-methylpropyl]-4-(4-bromobenzyl)-pyrrolo[1,2-b]pyridazine-2-carboxamide]
EC50 [1]: 1.9 µM

Cn1cc(-c2ccc(Cc3cc(C(=O)NC4CCOCC4)nn4cccc34)cc2)cn1 [Example 21, N-[Tetrahydropyran-4-yl] 4-[4-(1-methyl-1H-pyrazol-4-yl)-benzyl]-pyrrolo[1,2-b]pyridazine-2-carboxamide]
AUC(0-t) ([2]; intravenous (bolus), 1 mg/kg): 8200 ± 1560 ng·h/mL
clearance ([2]; intravenous (bolus), 1 mg/kg): 1.9 ± 0.5 mL/min/kg
half-life ([2]; intravenous (bolus), 1 mg/kg): 8.1 ± 1.4 h
bioavailability [2]: 58 ± 2%
AUC(0-t) ([2]; oral (gavage), 3 mg/kg): 14200 ± 493 ng·h/mL
Cmax ([2]; oral (gavage), 3 mg/kg): 1060 ± 257 ng/mL
half-life ([2]; oral (gavage), 3 mg/kg): 8.7 ± 3 h

Cn1cc(-c2ccc(Cc3cc(C(=O)NCC4(O)CCOCC4)nn4cccc34)cc2)cn1 [Example 22, N-[4-Hydroxy-tetrahydro-pyran-4-ylmethyl] 4-[4-(1-methyl-1H-pyrazol-4-yl)-benzyl]-pyrrolo[1,2-b]pyridazine-2-carboxamide]
EC50 [1]: 1.66 µM

O=C(NC1CCOCC1)c1cc(Cc2ccc(-c3cccnc3)cc2)c2cccn2n1 [Example 28, N-[Tetrahydropyran-4-yl] 4-[4-(3-pyridyl)-benzyl]-pyrrolo[1,2-b]pyridazine-2-carboxamide]
EC50 [1]: 0.586 µM

Cn1cc(-c2ccc(Cc3cc(C(=O)NC4CCOC4)nn4cccc34)cc2)cn1 (stereo not drawn) [Example 32, N-[Tetrahydrofuran-3-yl] 4-[4-(1-methyl-1H-pyrazol-4-yl)-benzyl]-pyrrolo[1,2-b]pyridazine-2-carboxamide]
EC50 [1]: 2.02 µM

O=C(NC1CCOC1)c1cc(Cc2ccc(-c3ccncc3)cc2)c2cccn2n1 (stereo not drawn) [Example 33, N-[Tetrahydrofuran-3-yl] 4-[4-(4-pyridyl)-benzyl]-pyrrolo[1,2-b]pyridazine-2-carboxamide]
EC50 [1]: 2.11 µM

O=C(NC1CCOC1)c1cc(Cc2ccc(-c3cccnc3)cc2)c2cccn2n1 (stereo not drawn) [Example 34, N-[Tetrahydrofuran-3-yl] 4-[4-(3-pyridyl)-benzyl]-pyrrolo[1,2-b]pyridazine-2-carboxamide]
EC50 [1]: 2.85 µM

Cn1cc(-c2ccc(Cc3cc(C(=O)NCC4CCOC4)nn4cccc34)cc2)cn1 (stereo not drawn) [Example 35, N-[Tetrahydrofuran-3-ylmethyl] 4-[4-(1-methyl-1H-pyrazol-4-yl)-benzyl]-pyrrolo[1,2-b]pyridazine-2-carboxamide]
EC50 [1]: 0.343 µM

CCC(CO)NC(=O)c1cc(Cc2ccc(-c3cnn(C)c3)cc2)c2cccn2n1 (stereo not drawn) [Example 36, N-[l-Hydroxymethyl-propyl] 4-[4-(1-methyl-1H-pyrazol-4-yl)-benzyl]-pyrrolo[1,2-b]pyridazine-2-carboxamide]
EC50 [1]: 1.15 µM

CC(C)C(CO)NC(=O)c1cc(Cc2ccc(-c3cnn(C)c3)cc2)c2cccn2n1 (stereo not drawn) [Example 37, N-[1-Hydroxymethyl-2-methylpropyl] 4-[4-(1-methyl-1H-pyrazol-4-yl)-benzyl]-pyrrolo[1,2-b]pyridazine-2-carboxamide]
EC50 [1]: 0.411 µM

O=C(N[C@H]1CCCC[C@@H]1O)c1cc(Cc2ccc(Cc3ccnc(F)c3)cc2)c2cccn2n1 [Example 50, N-[(1S,2S)-2-Hydroxycyclohexyl]-4-[4-(2-fluoropyridin-4-yl-methyl)-benzyl]-pyrrolo[1,2-b]pyridazine-2-carboxamide]
EC50 [1]: 0.518 µM
